Reference: patent US20240148821A1, “PHARMACEUTICAL USE OF CYCLIC PEPTIDE COMPOUND” (CHUGAI SEIYAKU KABUSHIKI KAISHA, priority 2021, published 2024)
Numbered stars: 1 amine (or outer) side, 2 acyl side, 3 side chain; on linkers, the order of the positions; unused ones are H or OH. Bridge positions count the residues as written; N and C are the ends. Square brackets hold non-standard residues; d marks the D form. Peptide text beside a SMILES is read from it. * marks the point of attachment. hPhe(3-Cl-4-CF3) = N[C@@H](CCc1ccc(C(F)(F)F)c(Cl)c1)C(=O)O; hPhe(3-F,4-CF3) = N[C@@H](CCc1ccc(C(F)(F)F)c(F)c1)C(=O)O; NMePhe(4-CF3) = CN[C@@H](Cc1ccc(C(F)(F)F)cc1)C(=O)O; hPhe(4-CF3) = N[C@@H](CCc1ccc(C(F)(F)F)cc1)C(=O)O; 3Oxa8azabicyclo(3.2.1)octane = C1CC2COCC1N2*; NMePhe(4-Cl) = CN[C@@H](Cc1ccc(Cl)cc1)C(=O)O; NMePhe(2-OMe) = CN[C@@H](Cc1ccccc1OC)C(=O)O; NMePhe(3-F) = CN[C@@H](Cc1cccc(F)c1)C(=O)O; X64 = O=C([C@H](Cc1ccc(Br)s1)N[*:1])[*:2]; NMeGly(cPent) = CN[C@H](C(=O)O)C1CCCC1; Phe(3-I) = N[C@@H](Cc1cccc(I)c1)C(=O)O; Pro(4,4-F2) = O=C(O)[C@@H]1CC(F)(F)CN1; NMeCha = CN[C@@H](CC1CCCCC1)C(=O)O; NMeChg = CN[C@H](C(=O)O)C1CCCCC1; NMeF = CN[C@@H](Cc1ccccc1)C(=O)O; NMeI = CC[C@H](C)[C@H](NC)C(=O)O; NMeβAla = CN(CCC(=O)[*:2])[*:1]; NMeD = CN[C@@H](CC(=O)O)C(=O)O; NMeL = CN[C@@H](CC(C)C)C(=O)O; Cba = N[C@@H](CC1CCC1)C(=O)O; NMeV = CN[C@H](C(=O)O)C(C)C; d(β3hA) = C[C@@H](N)CC(=O)O; NMeA = CN[C@@H](C)C(=O)O; NMeAib = CNC(C)(C)C(=O)O; Nle = CCCC[C@H](N)C(=O)O; Piperidide = C1CCN(*)CC1; Pyrrolidide = C1CCN(*)C1; dNMeA = CN[C@H](C)C(=O)O; Ac5c = NC1(C(=O)O)CCCC1; Aze = O=C(O)[C@@H]1CCN1; Ac4c = NC1(C(=O)O)CCC1; Sar = CNCC(=O)O

tested on: Human pancreatic cancer cell line AsPC-1 (G12D mutation Kras); test: AsPC-1 cell growth inhibition (AsPC-1 CGI); assay type: cell-based; conditions: read-out: AsPC-1 cell growth inhibition, 50% growth inhibitory concentration (IC50 value); 96 hours, CellTiter-Glo, values classified in ranges
Experimental: Test compounds were serially dilated with dimethyl sulfoxide, and 200 nL was then dispensed to a U-bottom 96-well plate using Labcyte Echo. […] The cell suspension was dispensed to a. plate containing a test compound at 100 μL per well and incubated at 37° C. in a 5% carbon dioxide gas incubator. 96 hours later, 80 μL of CellTiter-Glo (Promega) was added to each well and fluorescence was measured.

Structure (SMILES)	IC50 [nM]
CCCC[C@@H]1NC(=O)[C@H](Cc2ccc(Br)s2)NC(=O)CN(C)C(=O)[C@H](Cc2ccc(Cl)cc2)N(C)C(=O)CN(C)C(=O)CN(C)C(=O)[C@H]([C@@H](C)CC)NC(=O)[C@H](CC(C)C)N(C)C(=O)C[C@@H](C(=O)N2CCCCC2)N(C)C(=O)[C@H](CC(C)C)NC(=O)C(C)(C)N(C)C1=O [Compound 1216] ([NMeL]I[Sar][Sar][NMePhe(4-Cl)][Sar][X64][Nle][NMeAib]L[NMeD]-Piperidide; lactam N-11)	> 500
CC[C@H](C)[C@@H]1NC(=O)[C@H](CC(C)C)N(C)C(=O)CCN(C)C(=O)[C@H](C(C)C)N(C)C(=O)C2(CCCC2)NC(=O)[C@@H]2CCCN2C(=O)[C@H](CCc2ccc(C(F)(F)F)c(F)c2)NC(=O)CN(C)C(=O)[C@H](CC2CCCCC2)N(C)C(=O)CN(C)C(=O)CN(C)C1=O [Compound 879] (cyclo([Ac5c][NMeV][NMeβAla][NMeL]I[Sar][Sar][NMeCha][Sar][hPhe(3-F,4-CF3)]P))	> 500
CC[C@H](C)[C@@H]1NC(=O)[C@H](C)N(C)C(=O)C[C@@H](C(=O)N2CCCCC2)N(C)C(=O)[C@H](C(C)C)N(C)C(=O)C2(CCCC2)NC(=O)[C@@H]2CCCN2C(=O)[C@H](CCc2ccc(C(F)(F)F)c(Cl)c2)NC(=O)[C@@H](C)N(C)C(=O)[C@H](Cc2ccccc2)N(C)C(=O)CN(C)C(=O)CN(C)C1=O [Compound 1844] ([NMeA]I[Sar][Sar][NMeF][dNMeA][hPhe(3-Cl-4-CF3)]P[Ac5c][NMeV][NMeD]-Piperidide; lactam N-11)	> 500
CCCC[C@@H]1NC(=O)[C@H](Cc2cccc(I)c2)NC(=O)CN(C)C(=O)[C@H](Cc2ccc(Cl)cc2)N(C)C(=O)CN(C)C(=O)CN(C)C(=O)[C@H]([C@@H](C)CC)NC(=O)[C@H](CC(C)C)N(C)C(=O)C[C@@H](C(=O)N2CCCCC2)N(C)C(=O)[C@H](CC(C)C)NC(=O)[C@H](Cc2ccccc2OC)N(C)C1=O [Compound 259] ([NMeL]I[Sar][Sar][NMePhe(4-Cl)][Sar][Phe(3-I)][Nle][NMePhe(2-OMe)]L[NMeD]-Piperidide; lactam N-11)	> 500
CC[C@H](C)[C@@H]1NC(=O)[C@H](CC(C)C)N(C)C(=O)C[C@@H](C(=O)N2CCCC2)N(C)C(=O)[C@H](C2CCCCC2)N(C)C(=O)C2(CCC2)NC(=O)[C@@H]2CC(F)(F)CN2C(=O)[C@H](CCc2ccc(C(F)(F)F)c(Cl)c2)NC(=O)CN(C)C(=O)[C@H](CC2CCCCC2)N(C)C(=O)CN(C)C(=O)CN(C)C1=O [Compound 1163] ([NMeL]I[Sar][Sar][NMeCha][Sar][hPhe(3-Cl-4-CF3)][Pro(4,4-F2)][Ac4c][NMeChg][NMeD]-Pyrrolidide; lactam N-11)	≤ 20
CC(C)C[C@H]1C(=O)N[C@@H](CC2CCC2)C(=O)N(C)CC(=O)N(C)CC(=O)N(C)[C@@H](CC2CCCCC2)C(=O)N(C)CC(=O)N[C@@H](CCc2ccc(C(F)(F)F)c(Cl)c2)C(=O)N2CCC[C@H]2C(=O)NC2(CCCC2)C(=O)N(C)[C@@H](C2CCCCC2)C(=O)N(C)[C@H](C(=O)N2CCCCC2)CC(=O)N1C [Compound 1759] ([NMeL][Cba][Sar][Sar][NMeCha][Sar][hPhe(3-Cl-4-CF3)]P[Ac5c][NMeChg][NMeD]-Piperidide; lactam N-11)	> 500
CC[C@H](C)[C@@H]1NC(=O)[C@H](C)N(C)C(=O)C[C@@H](C)NC(=O)[C@H](C(C)C)N(C)C(=O)[C@H](Cc2ccccc2)N(C)C(=O)[C@H](CC(C)C)N(C)C(=O)[C@H](CCc2ccc(C(F)(F)F)cc2)NC(=O)CN(C)C(=O)[C@H](Cc2ccc(Cl)cc2)N(C)C(=O)[C@@H]2CCN2C(=O)CN(C)C1=O [Compound 913] (cyclo([Aze][NMePhe(4-Cl)][Sar][hPhe(4-CF3)][NMeL][NMeF][NMeV][d(β3hA)][NMeA]I[Sar]))	> 500
CC[C@H](C)[C@@H]1NC(=O)[C@H](CC(C)C)N(C)C(=O)C[C@@H](C(=O)N(C)C)N(C)C(=O)[C@H](C2CCCC2)N(C)C(=O)[C@H](C)NC(=O)[C@@H](C)NC(=O)[C@H](CCc2ccc(C(F)(F)F)c(Cl)c2)NC(=O)CN(C)C(=O)[C@H](CC2CCCCC2)N(C)C(=O)[C@@H]2CCN2C(=O)[C@H](C)N(C)C1=O [Compound 736] ([NMeL]I[NMeA][Aze][NMeCha][Sar][hPhe(3-Cl-4-CF3)][dA]A[NMeGly(cPent)][NMeD]-NMe2; lactam N-11)	> 500
CC[C@H](C)[C@@H]1NC(=O)[C@H](CC(C)C)N(C)C(=O)C[C@@H](C)NC(=O)[C@H](C(C)C)N(C)C(=O)C2(CCCC2)NC(=O)[C@@H]2CCCN2C(=O)[C@H](CCc2ccc(C(F)(F)F)c(Cl)c2)NC(=O)CN(C)C(=O)[C@H](Cc2cccc(F)c2)N(C)C(=O)CN(C)C(=O)CN(C)C1=O [Compound 1556] (cyclo([Ac5c][NMeV][d(β3hA)][NMeL]I[Sar][Sar][NMePhe(3-F)][Sar][hPhe(3-Cl-4-CF3)]P))	> 500
CC[C@H](C)[C@@H]1NC(=O)[C@H](CC(C)C)N(C)C(=O)C[C@@H](C(=O)N2C3CCC2COC3)N(C)C(=O)[C@H]([C@@H](C)CC)N(C)C(=O)C2(CCCC2)NC(=O)[C@@H]2CCCN2C(=O)[C@H](CCc2ccc(C(F)(F)F)c(Cl)c2)NC(=O)CN(C)C(=O)[C@H](Cc2ccc(C(F)(F)F)cc2)N(C)C(=O)[C@@H]2CCN2C(=O)[C@H](C)N(C)C1=O [Compound 545] ([NMeL]I[NMeA][Aze][NMePhe(4-CF3)][Sar][hPhe(3-Cl-4-CF3)]P[Ac5c][NMeI][NMeD]-{3Oxa8azabicyclo(3.2.1)octane}; lactam N-11)	≤ 20
